{
  "source": "paper PMC12304826",
  "about": "“Redirecting the Peptide Cleavage Causes Protease Inactivation” (Angewandte Chemie (International Ed. in English), 2025)",
  "molecular_target": "T1, human cathepsin K (Homo sapiens, UniProt P43235)",
  "T1 construct": "purchased Enzo Life Sciences, Lörrach, Germany",
  "T1 sequence (P43235 115-329)": "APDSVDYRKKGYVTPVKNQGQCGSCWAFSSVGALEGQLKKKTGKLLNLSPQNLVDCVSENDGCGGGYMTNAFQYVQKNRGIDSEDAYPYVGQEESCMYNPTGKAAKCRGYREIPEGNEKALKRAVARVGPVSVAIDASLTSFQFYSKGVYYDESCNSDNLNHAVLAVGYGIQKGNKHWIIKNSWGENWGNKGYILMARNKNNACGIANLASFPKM",
  "test": "Cathepsin K inhibition assay (Cbz-Leu-Arg-AMC)",
  "assay_type": "biochemical",
  "details": "20 µM inhibitor, 60 min; read-out: Residual activity @ 20 µM (%) Cat K",
  "description": "1. Enzyme Inhibition Assays and Kinetic Data of Inhibition of Cathepsins B, L, K and S General. Human cathepsins were assayed either fluorimetrically or spectrophotometrically as noted below. The 10 mM inhibitor solutions were prepared in DMSO. The final concentration of DMSO in all assays was 2%. Non-linear regressions were conducted with GraFit 5. Residual cathepsin activity at an inhibitor concentration of 20 µM was determined from duplicate measurements based on the product formation after 60 min. Concentration dependent measurements were performed in duplicate measurements with five different inhibitor concentrations when the residual cathepsin activity in the presence of 20 µM inhibitor was below 70% (cathepsin B) or below 50% (cathepsins cathepsins L, K, and S). Progress curves were monitored for 60 min. First-order rate constants, kobs, were determined by non-linear regression following the equation [P] = vi × (1 – exp(-kobs × t))/kobs + d, where [P] is the product concentration, vi is the initial product formation rate, kobs is the observed first-order rate constant, and d is the offset. Mean values of kobs were plotted versus corresponding inhibitor concentrations [I], and second-order rate constants of inactivation, kinac/Ki, were obtained by linear regression. The equation kobs/[I] = (kinac/Ki)/(1 + [S]/Km) was used, where [S] is the substrate concentration and Km is the Michaelis-Menten constant. Standard errors (SE) refer to the linear regression. […] Cathepsin K inhibition assay.[1] Human recombinant cathepsin K (Enzo Life Sciences, Lörrach, Germany) was assayed fluorimetrically on a Monaco Safas spectrofluorometer flx or a Fluostar OPTIMA plate reader (BMG Labtech, Ortenberg, Germany). The wavelength for excitation was 360 nm and for emission 440 nm. The reactions were followed at 25 °C. A human cathepsin K stock solution of 23 µg/mL in 50 mM sodium acetate pH 5.5, 50 mM NaCl, 0.5 mM EDTA, 5 mM DTT was diluted 1:100 with assay buffer (100 mM sodium citrate pH 5.0, 100 mM NaCl, 1 mM EDTA, 0.01% CHAPS) containing 5 mM DTT and incubated for 30 min at 37 °C. A 10 mM stock solution of the 7-amino-4-methyl-coumarin (AMC)-based fluorogenic substrate Cbz-Leu-Arg-AMC was prepared in DMSO. The final concentration of the substrate was 40 μM (= 13.3 Km). When using the spectrofluorometer, into a cuvette containing 960 μL assay buffer, inhibitor solution and DMSO in a total volume of 16 μL, and 4 μL of the substrate solution were added and mixed. The reaction was initiated by adding 20 µL of the cathepsin K solution. When using the plate reader, into a well containing 192 µL assay buffer, inhibitor solution and DMSO in a total volume of 3.2 µL and 0.8 µL of the substrate solution were added and mixed. The reaction was initiated by adding 4 µL of the cathepsin K solution.\nCathepsin S inhibition assay.[2] […]\nDTT, 0.5% Triton X-100 and 30% glycerol was diluted 1:100 with a 50 mM sodium phosphate buffer pH 6.5, 50 mM NaCl, 2 mM EDTA, 0.01% Triton X-100 and 5 mM DTT and incubated for 60 min at 37 °C. A 10 mM stock solution of the fluorogenic substrate Cbz-Phe-Arg-AMC was prepared in DMSO.\nThe assay was performed with a final substrate concentration of 40 µM (= 0.74 Km). When using the spectrofluorometer, into a cuvette containing 920 μL assay buffer, inhibitor solution and DMSO in a total volume of 16 μL, and 4 μL of the substrate solution were added and mixed. The reaction was initiated by adding 60 μL of the cathepsin S solution. When using the plate reader, into a well containing 188 µL assay buffer, inhibitor solution and DMSO in a total volume of 3.2 µL and 0.8 µL of the substrate solution were added and mixed. The reaction was initiated by adding […] of the cathepsin S solution.",
  "data": [
    {"compound": "CC(C)CC(C(=O)NC(Cc1ccccc1)C(=O)O)N(C)C(=O)Oc1ccc(Cl)cc1", "note": "(stereo not shown) [Compound 14]", "values": [
      {"measurement": "remaining activity at 20 µM", "value": 76, "unit": "%"}
    ]}
  ]
}
